Data as given in patent publication US20100099314A1, “IONIC LIQUIDS DERIVED FROM SURFACTANTS” (priority 2004, published 2010).

Assay: Water Miscibility Test
Assay type: physicochemical
Conditions: 0.5 g ionic liquid and 4.5 g de-ionized water, sonicated 1.5 hours; miscible if homogenous transparent system within 15 minutes of standing
Procedure: The water miscibility of an ionic liquid is measured by the following water miscibility test. A mixture of 0.5 g ionic liquid and 4.5 g de-ionized water are sonicated in a Bransonic Ultrasonic Bath (model# 1210R-MTH, 50/60 Hz, 117 volts, 1.3 AMPS) according to manufacture's specifications for 1.5 hours. Thereafter, if a homogenous transparent system results within 15 minutes of standing without agitation, then the ionic liquid is water miscible.

For `CC(C)CC(C)CC(CC(C)C)OCCOCCOCCOS(=O)(=O)[O-].CCCCCCCCCCCC[N+](C)(C)O` (centres unmarked) [Example 1, N-dodecyl-N,N-dimethylamine N-oxide 2,4,8-trimethylnonyl-6-triethoxysulfate], the “Water Miscible?” value was “No”.

For `CCCCCCCCCCCCOCCOS(=O)(=O)[O-].CCCCCCCCCCCC[N+](C)(C)O` [Example 2, N-dodecyl-N,N-dimethylamine N-oxide dodecylethoxysulfate], the “Water Miscible?” value was “No”.
